Assay results published in patent US9133181B2, “Substituted 6-(4-hydroxy-phenyl)-1H-pyrazolo[3,4-b]pyridine derivatives as kinase inhibitors” (SANOFI, priority 2012, dated 2015).

Target: T1, human full-length recombinant PKC βII (Homo sapiens, UniProt P05771)
T1 construct: Active human full-length recombinant PKC βII; purchased Invitrogen GmbH, Darmstadt, Germany
Test: Determination of PKC βII inhibition (Caliper mobility shift kinase assay)
Format: biochemical
Details: final compound concentration 1.14 μM (±0.15 μM); 60 min incubation at 32° C.
Summary of the method: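 Compound was tested at a final 1.14 µM (±0.15 µM), with % inhibition derived from the product/(substrate+product) peak ratio on a Caliper mobility-shift read-out. Full-length PKC βII was activated by CaCl2, PS and DAG in pH 7.4 Hepes/MgCl2. Peptide and ATP were at 3 µM and 120 µM in the added mix. Incubation was 60 min at 32 °C.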

T1 sequence (P05771 1-673 isoform P05771-2): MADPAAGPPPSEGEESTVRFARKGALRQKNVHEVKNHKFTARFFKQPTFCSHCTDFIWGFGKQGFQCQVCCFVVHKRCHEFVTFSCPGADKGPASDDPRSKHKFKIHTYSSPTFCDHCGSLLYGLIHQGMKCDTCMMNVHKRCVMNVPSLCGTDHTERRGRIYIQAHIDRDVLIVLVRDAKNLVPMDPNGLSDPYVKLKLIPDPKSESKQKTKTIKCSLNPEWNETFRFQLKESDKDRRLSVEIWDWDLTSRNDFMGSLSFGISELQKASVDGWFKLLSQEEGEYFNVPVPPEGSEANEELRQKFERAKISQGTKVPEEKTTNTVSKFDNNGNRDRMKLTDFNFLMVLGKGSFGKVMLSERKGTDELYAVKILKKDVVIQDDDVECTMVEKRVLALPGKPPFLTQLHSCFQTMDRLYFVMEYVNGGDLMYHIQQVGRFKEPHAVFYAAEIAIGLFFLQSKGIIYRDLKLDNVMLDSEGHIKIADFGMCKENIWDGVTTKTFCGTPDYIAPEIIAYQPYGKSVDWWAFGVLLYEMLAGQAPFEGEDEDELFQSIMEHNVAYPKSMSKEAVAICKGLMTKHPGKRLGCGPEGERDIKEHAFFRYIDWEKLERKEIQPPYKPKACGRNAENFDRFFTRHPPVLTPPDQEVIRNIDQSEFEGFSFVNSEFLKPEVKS

Row | Compound | inhibition at 1.14 µM
1 | COCCCN1CC(C)(C)N(Cc2cc(-c3ccc(O)cc3F)nc3[nH]nc(C)c23)CC1(C)C [Example 67, 3-Fluoro-4-{4-[4-(3-methoxy-propyl)-2,2,5,5-tetramethyl-piperazin-1-ylmethyl]-3-methyl-1H-pyrazolo[3,4-b]pyridin-6-yl}-phenol] | 103%
2 | Cc1n[nH]c2nc(-c3ccc(O)cc3)cc(CN3CCNCC3c3ccc(C(C)C)cc3)c12 (centres unmarked) [Example 45, 4-{4-[2-(4-Isopropyl-phenyl)-piperazin-1-ylmethyl]-3-methyl-1H-pyrazolo[3,4-b]pyridin-6-yl}-phenol] | 54%
3 | Cc1n[nH]c2nc(-c3ccc(O)cc3F)cc(CN3CCNCC3c3ccc(C(C)C)cc3)c12 (centres unmarked) [Example 2, 3-Fluoro-4-{4-[2-(4-isopropyl-phenyl)-piperazin-1-ylmethyl]-3-methyl-1H-pyrazolo[3,4-b]pyridin-6-yl}-phenol] | 65%
4 | Cc1n[nH]c2nc(-c3ccc(O)cc3F)cc(CN3CCNCC3(C)c3ccccc3)c12 (centres unmarked) [Example 12, 3-Fluoro-4-[3-methyl-4-(2-methyl-2-phenyl-piperazin-1-ylmethyl)-1H-pyrazolo[3,4-b]pyridin-6-yl]-phenol] | 94%
5 | Cc1n[nH]c2nc(-c3ccc(O)cc3)cc(CN3CCNC[C@H]3c3ccc(C(F)(F)F)cc3)c12 [Example 114, 4-{3-Methyl-4-[(R)-2-(4-trifluoromethyl-phenyl)-piperazin-1-ylmethyl]-1H-pyrazolo[3,4-b]pyridin-6-yl}-phenol] | 57%
6 | Oc1ccc(-c2cc(CN3CCNCC3)c3c(C4CC4)n[nH]c3n2)cc1 [Example 95, 4-(3-Cyclopropyl-4-piperazin-1-ylmethyl-1H-pyrazolo[3,4-b]pyridin-6-yl)-phenol] | 53%
7 | Cc1n[nH]c2nc(-c3ccc(O)cc3F)cc(CN3CC(C)(C)N(C[C@H]4COC(C)(C)O4)CC3(C)C)c12 [Example 69, 4-{4-[4-((S)-2,2-Dimethyl-[1,3]dioxolan-4-ylmethyl)-2,2,5,5-tetramethyl-piperazin-1-ylmethyl]-3-methyl-1H-pyrazolo[3,4-b]pyridin-6-yl}-3-fluoro-phenol] | 92%
8 | Cc1n[nH]c2nc(-c3ccc(O)cc3)cc(CN3CC(C)NCC3(C)C)c12 (centres unmarked) [Example 48, 4-[3-Methyl-4-(2,2,5-trimethyl-piperazin-1-ylmethyl)-1H-pyrazolo-[3,4-b]pyridin-6-yl]-phenol] | 99%
9 | Cc1n[nH]c2nc(-c3ccc(O)cc3F)cc(CN3CCNCC3c3cc(F)cc(F)c3)c12 (centres unmarked) [Example 9, 4-{4-[2-(3,5-Difluoro-phenyl)-piperazin-1-ylmethyl]-3-methyl-1H-pyrazolo[3,4-b]pyridin-6-yl}-3-fluoro-phenol] | 81%
10 | COCC(=O)N1CC(C)N(Cc2cc(-c3ccc(O)cc3)nc3[nH]nc(C)c23)CC12CCCC2 (centres unmarked) [Example 82, 1-{9-[6-(4-Hydroxy-phenyl)-3-methyl-1H-pyrazolo[3,4-b]pyridin-4-ylmethyl]-8-methyl-6,9-diaza-spiro[4.5]dec-6-yl}-2-methoxy-ethanone] | 85%
11 | Cc1n[nH]c2nc(-c3ccc(O)cc3F)cc(CN3CCNCC3c3ccccc3)c12 (centres unmarked) [Example 1, 3-Fluoro-4-[3-methyl-4-(2-phenyl-piperazin-1-ylmethyl)-1H-pyrazolo[3,4-b]pyridin-6-yl]-phenol] | 95%
12 | Cc1n[nH]c2nc(-c3ccc(O)cc3)cc(CN3C[C@@H](C)NC[C@@H]3C)c12 [Example 54, 4-[4-((2S,5R)-2,5-Dimethyl-piperazin-1-ylmethyl)-3-methyl-1H-pyrazolo[3,4-b]pyridin-6-yl]-phenol] | 98%
13 | Cc1n[nH]c2nc(-c3ccc(O)cc3F)cc(CN3CC(C)(C4CC4)NCC3(C)C)c12 (centres unmarked) [Example 23, 4-[4-(5-Cyclopropyl-2,2,5-trimethyl-piperazin-1-ylmethyl)-3-methyl-1H-pyrazolo[3,4-b]pyridin-6-yl]-3-fluoro-phenol] | 99%
14 | Cc1n[nH]c2nc(-c3ccc(O)cc3F)cc(CN3C[C@H](c4ccccc4)NC[C@H]3C)c12 [Example 100, 3-Fluoro-4-[3-methyl-4-((2R,5S)-2-methyl-5-phenyl-piperazin-1-ylmethyl)-1H-pyrazolo[3,4-b]pyridin-6-yl]-phenol] | 86%
15 | COCC(=O)N1CC(C)(C)N(Cc2cc(-c3ccc(O)cc3)nc3[nH]nc(C)c23)CC1(C)C [Example 90, 1-{4-[6-(4-Hydroxy-phenyl)-3-methyl-1H-pyrazolo[3,4-b]pyridin-4-ylmethyl]-2,2,5,5-tetramethyl-piperazin-1-yl}-2-methoxy-ethanone] | 99%
16 | Cc1n[nH]c2nc(-c3ccc(O)cc3)cc(CN3CCNCC3c3ccc(F)cc3)c12 (centres unmarked) [Example 42, 4-{4-[2-(4-Fluoro-phenyl)-piperazin-1-ylmethyl]-3-methyl-1H-pyrazolo[3,4-b]pyridin-6-yl}-phenol] | 94%
17 | Cc1n[nH]c2nc(-c3ccc(O)cc3F)cc(CN3CC(C)(C)N(C(=O)CO)CC3(C)C)c12 [Example 80, 1-{4-[6-(2-Fluoro-4-hydroxy-phenyl)-3-methyl-1H-pyrazolo[3,4-b]pyridin-4-ylmethyl]-2,2,5,5-tetramethyl-piperazin-1-yl}-2-hydroxy-ethanone] | 93%
18 | Cc1n[nH]c2nc(-c3ccc(O)cc3F)cc(CN3CC4(CCCC4)NCC3(C)C)c12 [Example 36, 4-[4-(8,8-Dimethyl-6,9-diaza-spiro[4.5]dec-9-ylmethyl)-3-methyl-1H-pyrazolo[3,4-b]pyridin-6-yl]-3-fluoro-phenol] | 94%
19 | Cc1n[nH]c2nc(-c3ccc(O)cc3)cc(CN3CCNCC3c3ccccc3)c12 (centres unmarked) [Example 41, 4-[3-Methyl-4-(2-phenyl-piperazin-1-ylmethyl)-1H-pyrazolo[3,4-b]pyridin-6-yl]-phenol] | 93%
20 | Cc1n[nH]c2nc(-c3ccc(O)cc3F)cc(CN3CCNC(C)(C)C3)c12 [Example 55, 4-[4-(3,3-Dimethyl-piperazin-1-ylmethyl)-3-methyl-1H-pyrazolo[3,4-b]pyridin-6-yl]-3-fluoro-phenol] | 86%
21 | CCC1CNC(C)(C)CN1Cc1cc(-c2ccc(O)cc2F)nc2[nH]nc(C)c12 (centres unmarked) [Example 39, 4-[4-(2-Ethyl-5,5-dimethyl-piperazin-1-ylmethyl)-3-methyl-1H-pyrazolo[3,4-b]pyridin-6-yl]-3-fluoro-phenol] | 100%
22 | CC[C@@H]1CN(Cc2cc(-c3ccc(O)cc3F)nc3[nH]nc(C)c23)[C@@H](C)CN1 [Example 30, 4-[4-((2S,5R)-5-Ethyl-2-methyl-piperazin-1-ylmethyl)-3-methyl-1H-pyrazolo[3,4-b]pyridin-6-yl]-3-fluoro-phenol] | 97%

Further lines, results first:

Row | inhibition at 1.14 µM | Compound
23 | 94% | Cc1n[nH]c2nc(-c3ccc(O)cc3F)cc(CN3C[C@H](C)NCC3(C)C)c12 [Example 115, 3-Fluoro-4-[3-methyl-4-((S)-2,2,5-trimethyl-piperazin-1-ylmethyl)-1H-pyrazolo[3,4-b]pyridin-6-yl]-phenol]
24 | 98% | CC[C@@H]1CNC(C)(C)CN1Cc1cc(-c2ccc(O)cc2F)nc2[nH]nc(C)c12 [Example 144, 4-[4-((R)-2-Ethyl-5,5-dimethyl-piperazin-1-ylmethyl)-3-methyl-1H-pyrazolo[3,4-b]pyridin-6-yl]-3-fluoro-phenol]
25 | 98% | Cc1n[nH]c2nc(-c3ccc(O)cc3F)cc(CN3C[C@@](C)(C4CC4)NCC3(C)C)c12 [Example 149, 4-[4-((R)-5-Cyclopropyl-2,2,5-trimethyl-piperazin-1-ylmethyl)-3-methyl-1H-pyrazolo[3,4-b]pyridin-6-yl]-3-fluoro-phenol]
26 | 95% | Cc1n[nH]c2nc(-c3ccc(O)cc3F)cc(CN3C[C@@H](C)NCC3(C)C)c12 [Example 116, 3-Fluoro-4-[3-methyl-4-((R)-2,2,5-trimethyl-piperazin-1-ylmethyl)-1H-pyrazolo[3,4-b]pyridin-6-yl]-phenol]
27 | 91% | Cc1n[nH]c2nc(-c3ccc(O)cc3F)cc(CN3CC(C)(C)NC[C@@]3(C)C3CC3)c12 [Example 126, 4-[4-((R)-2-Cyclopropyl-2,5,5-trimethyl-piperazin-1-ylmethyl)-3-methyl-1H-pyrazolo[3,4-b]pyridin-6-yl]-3-fluoro-phenol]
28 | 97% | Cc1n[nH]c2nc(-c3ccc(O)cc3)cc(CN3C[C@@H](C)NCC3(C)C)c12 [Example 132, 4-[3-Methyl-4-((R)-2,2,5-trimethyl-piperazin-1-ylmethyl)-1H-pyrazolo[3,4-b]pyridin-6-yl]-phenol]
29 | 92% | Cc1n[nH]c2nc(-c3ccc(O)cc3F)cc(CN3C[C@H](C)NC[C@H]3C(F)(F)F)c12 [Example 154, 3-Fluoro-4-[3-methyl-4-((2S,5S)-5-methyl-2-trifluoromethyl-piperazin-1-ylmethyl)-1H-pyrazolo[3,4-b]pyridin-6-yl]-phenol]
30 | 83% | Cc1n[nH]c2nc(-c3ccc(O)cc3F)cc(CN3CC(C)(C)NC[C@@H]3C)c12 [Example 124, 3-Fluoro-4-[3-methyl-4-((S)-2,5,5-trimethyl-piperazin-1-ylmethyl)-1H-pyrazolo[3,4-b]pyridin-6-yl]-phenol]
31 | 97% | Cc1n[nH]c2nc(-c3ccc(O)cc3F)cc(CN3C[C@@H](C)NC[C@H]3C(F)(F)F)c12 [Example 153, 3-Fluoro-4-[3-methyl-4-((2S,5R)-5-methyl-2-trifluoromethyl-piperazin-1-ylmethyl)-1H-pyrazolo[3,4-b]pyridin-6-yl]-phenol]
32 | 98% | CC[C@]1(C)CNC(C)(C)CN1Cc1cc(-c2ccc(O)cc2)nc2[nH]nc(C)c12 [Example 141, 4-[4-((R)-2-Ethyl-2,5,5-trimethyl-piperazin-1-ylmethyl)-3-methyl-1H-pyrazolo[3,4-b]pyridin-6-yl]-phenol]
